Reference: PubChem BioAssay (NCI)
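Assay format: 96-well plates, 48-hour exposure. At the GI50, growth is halved. The concentration for full growth arrest is given as TGI.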

Columns and labels:
Assay in all cases: NCI-60 cell line screen, 48 h
HL-60(TB) leukemia = test system: HL-60(TB) leukemia
COLO 205 colon = test system: COLO 205 colon
A549 NSCLC = test system: A549 NSCLC
HOP-62 NSCLC = test system: HOP-62 NSCLC
HCT-15 colon = test system: HCT-15 colon
NCI-H522 lung = test system: NCI-H522 lung
SN12C renal = test system: SN12C renal
ACHN renal = test system: ACHN renal
SNB-75 CNS = test system: SNB-75 CNS
CAKI-1 renal = test system: CAKI-1 renal
NCI-H460 lung = test system: NCI-H460 lung
SK-MEL-28 melanoma = test system: SK-MEL-28 melanoma
OVCAR-3 ovarian = test system: OVCAR-3 ovarian
RPMI-8226 leukemia = test system: RPMI-8226 leukemia
HT29 colon = test system: HT29 colon
SW-620 colon = test system: SW-620 colon
U251 CNS = test system: U251 CNS
HOP-92 NSCLC = test system: HOP-92 NSCLC
SF-539 CNS = test system: SF-539 CNS
UACC-62 melanoma = test system: UACC-62 melanoma
SK-OV-3 ovarian = test system: SK-OV-3 ovarian
M14 melanoma = test system: M14 melanoma
UO-31 renal = test system: UO-31 renal
SK-MEL-2 melanoma = test system: SK-MEL-2 melanoma
SF-295 CNS = test system: SF-295 CNS
LOX IMVI melanoma = test system: LOX IMVI melanoma
NCI-H226 lung = test system: NCI-H226 lung
MALME-3M melanoma = test system: MALME-3M melanoma
SF-268 CNS = test system: SF-268 CNS
UACC-257 melanoma = test system: UACC-257 melanoma
HCC-2998 colon = test system: HCC-2998 colon
EKVX NSCLC = test system: EKVX NSCLC
IGROV1 ovarian = test system: IGROV1 ovarian
MOLT-4 leukemia = test system: MOLT-4 leukemia
K-562 leukemia = test system: K-562 leukemia
SK-MEL-5 melanoma = test system: SK-MEL-5 melanoma
NCI-H23 lung = test system: NCI-H23 lung
HCT-116 colon = test system: HCT-116 colon
OVCAR-8 ovarian = test system: OVCAR-8 ovarian
RXF 393 renal = test system: RXF 393 renal
KM20L2 colon = test system: KM20L2 colon
CCRF-CEM leukemia = test system: CCRF-CEM leukemia
OVCAR-4 ovarian = test system: OVCAR-4 ovarian
KM12 colon = test system: KM12 colon
OVCAR-5 ovarian = test system: OVCAR-5 ovarian
HOP-18 NSCLC = test system: HOP-18 NSCLC
M19-MEL melanoma = test system: M19-MEL melanoma
SNB-19 CNS = test system: SNB-19 CNS
SR leukemia = test system: SR leukemia
DMS 114 small cell lung = test system: DMS 114 small cell lung
DMS 273 small cell lung = test system: DMS 273 small cell lung
786-0 renal = test system: 786-0 renal
A498 renal = test system: A498 renal
LXFL 529 NSCLC = test system: LXFL 529 NSCLC
SNB-78 CNS = test system: SNB-78 CNS
DLD-1 colon = test system: DLD-1 colon
TK-10 renal = test system: TK-10 renal

Question: For COc1cccc(/C=N/[N-]C(N)=O)c1[O-].[Ni+2].[OH3+].c1ccc(-c2ccccn2)nc1, which GI50 (HL-60(TB) leukemia) is on record?
Answer: The GI50 was 66.9 µM.

Question: And the TGI (HL-60(TB) leukemia)?
Answer: Its TGI is over 100 µM.

Question: And the TGI (COLO 205 colon)?
Answer: The TGI was over 100 µM.

Question: What about the TGI (A549 NSCLC) of the same compound?
Answer: Its TGI is over 100 µM.

Question: What about the TGI (HOP-62 NSCLC) of the same compound?
Answer: The TGI was over 100 µM.

Question: And the TGI (HCT-15 colon)?
Answer: The TGI was over 100 µM.

Question: And the TGI (NCI-H522 lung)?
Answer: Its TGI is over 100 µM.

Question: What about the TGI (SN12C renal) of the same compound?
Answer: The TGI was over 100 µM.

Question: And the TGI (ACHN renal)?
Answer: The TGI was over 100 µM.

Question: What about the TGI (SNB-75 CNS) of the same compound?
Answer: The TGI was over 100 µM.

Question: What about the TGI (CAKI-1 renal) of the same compound?
Answer: The TGI was over 100 µM.

Question: What about the TGI (NCI-H460 lung) of the same compound?
Answer: Its TGI is over 100 µM.

Question: What about the TGI (SK-MEL-28 melanoma) of the same compound?
Answer: Its TGI is over 100 µM.

Question: And the TGI (OVCAR-3 ovarian)?
Answer: Its TGI is over 100 µM.

Question: What about the TGI (RPMI-8226 leukemia) of the same compound?
Answer: Its TGI is over 100 µM.

Question: What about the TGI (HT29 colon) of the same compound?
Answer: The TGI was over 100 µM.

Question: And the TGI (SW-620 colon)?
Answer: The TGI was over 100 µM.

Question: And the TGI (U251 CNS)?
Answer: Its TGI is over 100 µM.

Question: What about the TGI (HOP-92 NSCLC) of the same compound?
Answer: The TGI was 98.1 µM.

Question: And the TGI (SF-539 CNS)?
Answer: Its TGI is over 100 µM.

Question: And the TGI (UACC-62 melanoma)?
Answer: The TGI was over 100 µM.

Question: What about the TGI (SK-OV-3 ovarian) of the same compound?
Answer: Its TGI is over 100 µM.

Question: What about the TGI (M14 melanoma) of the same compound?
Answer: Its TGI is over 100 µM.

Question: And the TGI (UO-31 renal)?
Answer: Its TGI is over 100 µM.

Question: What about the TGI (SK-MEL-2 melanoma) of the same compound?
Answer: Its TGI is over 100 µM.

Question: And the TGI (SF-295 CNS)?
Answer: Its TGI is over 100 µM.

Question: What about the TGI (LOX IMVI melanoma) of the same compound?
Answer: Its TGI is over 100 µM.

Question: And the TGI (NCI-H226 lung)?
Answer: Its TGI is over 100 µM.

Question: And the TGI (MALME-3M melanoma)?
Answer: Its TGI is over 100 µM.

Question: And the TGI (SF-268 CNS)?
Answer: The TGI was over 100 µM.

Question: And the TGI (UACC-257 melanoma)?
Answer: The TGI was over 100 µM.

Question: And the TGI (HCC-2998 colon)?
Answer: The TGI was over 100 µM.

Question: And the TGI (EKVX NSCLC)?
Answer: Its TGI is over 100 µM.

Question: And the TGI (IGROV1 ovarian)?
Answer: Its TGI is over 100 µM.

Question: What about the TGI (MOLT-4 leukemia) of the same compound?
Answer: The TGI was over 100 µM.

Question: And the TGI (K-562 leukemia)?
Answer: The TGI was over 100 µM.

Question: What about the TGI (SK-MEL-5 melanoma) of the same compound?
Answer: Its TGI is over 100 µM.

Question: What about the TGI (NCI-H23 lung) of the same compound?
Answer: The TGI was over 100 µM.

Question: What about the TGI (HCT-116 colon) of the same compound?
Answer: Its TGI is over 100 µM.

Question: And the TGI (OVCAR-8 ovarian)?
Answer: The TGI was over 100 µM.

Question: What about the TGI (RXF 393 renal) of the same compound?
Answer: The TGI was over 100 µM.

Question: And the TGI (KM20L2 colon)?
Answer: Its TGI is over 100 µM.

Question: What about the TGI (CCRF-CEM leukemia) of the same compound?
Answer: The TGI was over 100 µM.

Question: And the TGI (OVCAR-4 ovarian)?
Answer: Its TGI is over 100 µM.

Question: And the TGI (KM12 colon)?
Answer: Its TGI is over 100 µM.

Question: What about the TGI (OVCAR-5 ovarian) of the same compound?
Answer: The TGI was over 100 µM.

Question: How did the TGI (HOP-18 NSCLC) turn out when Cc1ccc(NC(=O)C(=O)C(C#N)c2nc(-c3ccc(-c4ccccc4)cc3)cs2)c(C)c1 (stereo not drawn) was run?
Answer: The TGI was over 100 µM.

Question: And the TGI (COLO 205 colon)?
Answer: The TGI was over 100 µM.

Question: What about the TGI (M19-MEL melanoma) of the same compound?
Answer: The TGI was over 100 µM.

Question: What about the TGI (A549 NSCLC) of the same compound?
Answer: Its TGI is over 100 µM.

Question: And the TGI (HOP-62 NSCLC)?
Answer: Its TGI is over 100 µM.

Question: And the TGI (SNB-19 CNS)?
Answer: The TGI was over 100 µM.

Question: And the TGI (HCT-15 colon)?
Answer: The TGI was over 100 µM.

Question: And the TGI (SN12C renal)?
Answer: Its TGI is over 100 µM.

Question: And the TGI (SR leukemia)?
Answer: The TGI was over 100 µM.

Question: What about the TGI (ACHN renal) of the same compound?
Answer: Its TGI is over 100 µM.

Question: What about the TGI (DMS 114 small cell lung) of the same compound?
Answer: Its TGI is over 100 µM.

Question: And the TGI (SNB-75 CNS)?
Answer: Its TGI is over 100 µM.

Question: And the TGI (CAKI-1 renal)?
Answer: The TGI was over 100 µM.

Question: And the TGI (NCI-H460 lung)?
Answer: The TGI was over 100 µM.

Question: And the TGI (SK-MEL-28 melanoma)?
Answer: Its TGI is over 100 µM.

Question: What about the TGI (OVCAR-3 ovarian) of the same compound?
Answer: The TGI was over 100 µM.

Question: And the TGI (RPMI-8226 leukemia)?
Answer: Its TGI is over 100 µM.

Question: What about the TGI (HT29 colon) of the same compound?
Answer: The TGI was over 1 µM.

Question: And the TGI (SW-620 colon)?
Answer: The TGI was over 100 µM.

Question: And the TGI (U251 CNS)?
Answer: Its TGI is over 100 µM.

Question: And the TGI (HOP-92 NSCLC)?
Answer: Its TGI is over 1 µM.

Question: What about the TGI (SF-539 CNS) of the same compound?
Answer: Its TGI is over 100 µM.

Question: What about the TGI (UACC-62 melanoma) of the same compound?
Answer: Its TGI is over 100 µM.

Question: What about the TGI (SK-OV-3 ovarian) of the same compound?
Answer: Its TGI is over 100 µM.

Question: And the TGI (M14 melanoma)?
Answer: The TGI was over 100 µM.

Question: What about the TGI (DMS 273 small cell lung) of the same compound?
Answer: The TGI was over 100 µM.

Question: And the TGI (UO-31 renal)?
Answer: The TGI was over 100 µM.

Question: What about the TGI (SK-MEL-2 melanoma) of the same compound?
Answer: Its TGI is over 100 µM.

Question: What about the TGI (SF-295 CNS) of the same compound?
Answer: Its TGI is over 100 µM.

Question: And the TGI (LOX IMVI melanoma)?
Answer: Its TGI is over 100 µM.

Question: What about the TGI (NCI-H226 lung) of the same compound?
Answer: Its TGI is over 100 µM.

Question: What about the TGI (MALME-3M melanoma) of the same compound?
Answer: Its TGI is over 100 µM.

Question: What about the TGI (SF-268 CNS) of the same compound?
Answer: The TGI was over 100 µM.

Question: What about the TGI (UACC-257 melanoma) of the same compound?
Answer: Its TGI is over 100 µM.

Question: What about the TGI (786-0 renal) of the same compound?
Answer: Its TGI is over 100 µM.

Question: And the TGI (HCC-2998 colon)?
Answer: Its TGI is over 100 µM.

Question: What about the TGI (EKVX NSCLC) of the same compound?
Answer: The TGI was over 100 µM.

Question: What about the TGI (IGROV1 ovarian) of the same compound?
Answer: Its TGI is over 100 µM.

Question: What about the TGI (MOLT-4 leukemia) of the same compound?
Answer: Its TGI is over 100 µM.

Question: What about the TGI (SK-MEL-5 melanoma) of the same compound?
Answer: Its TGI is over 100 µM.

Question: And the TGI (NCI-H23 lung)?
Answer: Its TGI is over 1 µM.

Question: And the TGI (HCT-116 colon)?
Answer: Its TGI is over 100 µM.

Question: And the TGI (A498 renal)?
Answer: The TGI was over 100 µM.

Question: What about the TGI (LXFL 529 NSCLC) of the same compound?
Answer: The TGI was over 100 µM.

Question: And the TGI (SNB-78 CNS)?
Answer: The TGI was over 100 µM.

Question: What about the TGI (OVCAR-8 ovarian) of the same compound?
Answer: Its TGI is over 100 µM.

Question: What about the TGI (DLD-1 colon) of the same compound?
Answer: The TGI was over 100 µM.

Question: What about the TGI (RXF 393 renal) of the same compound?
Answer: Its TGI is over 100 µM.

Question: And the TGI (TK-10 renal)?
Answer: Its TGI is over 100 µM.

Question: What about the TGI (KM20L2 colon) of the same compound?
Answer: Its TGI is over 100 µM.

Question: What about the TGI (OVCAR-4 ovarian) of the same compound?
Answer: Its TGI is over 100 µM.

Question: What about the TGI (OVCAR-5 ovarian) of the same compound?
Answer: Its TGI is over 100 µM.
